Experimental data published in US20260193116A1, “MEMBRANE TREATMENT METHOD, BIOFOULING INHIBITION METHOD, AND ENDOTOXIN PRODUCTION INHIBITION METHOD IN WATER SYSTEM” (KURITA WATER INDUSTRIES LTD., priority 2022, published 2026).

What was measured:
[1] = tested on: endotoxin
[2] = tested on: endotoxin; remark: listed apart in the source

Row | Molecule | Endotoxin concentration [1] [EU/mL] | Endotoxin concentration compared to the treatments with chloramine, DBNPA and Cl-MIT alone [1] [%] | Discharge amount of endotoxin compared to raw water and Control (in words) [2]
1 | N#CC(Br)(Br)C(N)=O [DBNPA, 2,2-dibromo-3-nitrilopropionamide, reference compound] | 19.1 |  | 
2 | O=S(=O)(O)NCl.[Na] [Chlorosulfamic acid, sodium monochlorosulfamic acid] |  | ≤ 50 | suppress the discharge amount of endotoxin to be low compared to the raw water and Control
3 | Chloramine [reference compound] | 31.1 |  | 
